{
  "source": "PubChem BioAssay AID1963983",
  "about": "(Molecular Pharmacology Branch, DTP, NCI, 2024);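 further: spheroids exposed to compounds for seven days before viability reading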;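 on viability, T/C: 100% = DMSO vehicle control viability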",
  "test_system": "186277-243-T-J2-PDC multi-cell spheroid viability",
  "assay": "Anticancer human tumor 186277-243-T-J2-PDC patient-derived colon adenocarcinoma cell line growth inhibition [PI3K]",
  "details": "for IC50: curve of first compound; for viability, T/C: stronger effect = lower value",
  "summary_of_the_method": "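We assembled tumor spheroids that included a stromal compartment of HUVEC and MSCs, then exposed them to targeted agents alone and together with PI3K pathway inhibitors. Concentration series descended by half-log from clinically achievable Cmax levels. Viability served as the endpoint.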",
  "data": [
    {"smiles": "CC1(C)CCC(CN2CCN(c3ccc(C(=O)NS(=O)(=O)c4ccc(NCC5CCOCC5)c([N+](=O)[O-])c4)c(Oc4cnc5[nH]ccc5c4)c3)CC2)=C(c2ccc(Cl)cc2)C1", "note": "+ Cc1nc(NC(=O)N2CCCC2C(N)=O)sc1-c1ccnc(C(C)(C)C(F)(F)F)c1", "values": [
      {"measurement": "IC50", "setting": "second compound 0.0316 µM", "result": 4.68, "unit": "µM"},
      {"measurement": "IC50", "setting": "second compound 0.1 µM", "result": 4.44, "unit": "µM"},
      {"measurement": "IC50", "setting": "second compound 0.316 µM", "result": 4.35, "unit": "µM"},
      {"measurement": "IC50", "setting": "second compound 1 µM", "result": 3.93, "unit": "µM"},
      {"measurement": "IC50", "setting": "second compound 3.16 µM", "result": 1.5, "unit": "µM"},
      {"measurement": "IC50", "setting": "second compound 10 µM", "result": "< 0.0316", "unit": "µM"},
      {"measurement": "viability, T/C", "setting": "second compound 0.0316 µM, first compound 0.0316 µM", "result": 101, "unit": "%"},
      {"measurement": "viability, T/C", "setting": "second compound 0.0316 µM, first compound 0.1 µM", "result": 92.7, "unit": "%"},
      {"measurement": "viability, T/C", "setting": "second compound 0.0316 µM, first compound 0.316 µM", "result": 106, "unit": "%"},
      {"measurement": "viability, T/C", "setting": "second compound 0.0316 µM, first compound 1 µM", "result": 89.9, "unit": "%"},
      {"measurement": "viability, T/C", "setting": "second compound 0.0316 µM, first compound 3.16 µM", "result": 74.6, "unit": "%"},
      {"measurement": "viability, T/C", "setting": "second compound 0.0316 µM, first compound 10 µM", "result": 3.75, "unit": "%"},
      {"measurement": "viability, T/C", "setting": "second compound 0.1 µM, first compound 0.0316 µM", "result": 96.5, "unit": "%"},
      {"measurement": "viability, T/C", "setting": "second compound 0.1 µM, first compound 0.1 µM", "result": 109, "unit": "%"},
      {"measurement": "viability, T/C", "setting": "second compound 0.1 µM, first compound 0.316 µM", "result": 95.3, "unit": "%"},
      {"measurement": "viability, T/C", "setting": "second compound 0.1 µM, first compound 1 µM", "result": 101, "unit": "%"},
      {"measurement": "viability, T/C", "setting": "second compound 0.1 µM, first compound 3.16 µM", "result": 69.8, "unit": "%"},
      {"measurement": "viability, T/C", "setting": "second compound 0.1 µM, first compound 10 µM", "result": 2.39, "unit": "%"},
      {"measurement": "viability, T/C", "setting": "second compound 0.316 µM, first compound 0.0316 µM", "result": 101, "unit": "%"},
      {"measurement": "viability, T/C", "setting": "second compound 0.316 µM, first compound 0.1 µM", "result": 85.7, "unit": "%"},
      {"measurement": "viability, T/C", "setting": "second compound 0.316 µM, first compound 0.316 µM", "result": 111, "unit": "%"},
      {"measurement": "viability, T/C", "setting": "second compound 0.316 µM, first compound 1 µM", "result": 104, "unit": "%"},
      {"measurement": "viability, T/C", "setting": "second compound 0.316 µM, first compound 3.16 µM", "result": 68.2, "unit": "%"},
      {"measurement": "viability, T/C", "setting": "second compound 0.316 µM, first compound 10 µM", "result": 2.68, "unit": "%"},
      {"measurement": "viability, T/C", "setting": "second compound 1 µM, first compound 0.0316 µM", "result": 101, "unit": "%"},
      {"measurement": "viability, T/C", "setting": "second compound 1 µM, first compound 0.1 µM", "result": 112, "unit": "%"},
      {"measurement": "viability, T/C", "setting": "second compound 1 µM, first compound 0.316 µM", "result": 96.9, "unit": "%"},
      {"measurement": "viability, T/C", "setting": "second compound 1 µM, first compound 1 µM", "result": 89.7, "unit": "%"},
      {"measurement": "viability, T/C", "setting": "second compound 1 µM, first compound 3.16 µM", "result": 61.5, "unit": "%"},
      {"measurement": "viability, T/C", "setting": "second compound 1 µM, first compound 10 µM", "result": 0.93, "unit": "%"},
      {"measurement": "viability, T/C", "setting": "second compound 3.16 µM, first compound 0.0316 µM", "result": 54.2, "unit": "%"},
      {"measurement": "viability, T/C", "setting": "second compound 3.16 µM, first compound 0.1 µM", "result": 61.3, "unit": "%"},
      {"measurement": "viability, T/C", "setting": "second compound 3.16 µM, first compound 0.316 µM", "result": 58.9, "unit": "%"},
      {"measurement": "viability, T/C", "setting": "second compound 3.16 µM, first compound 1 µM", "result": 51.8, "unit": "%"},
      {"measurement": "viability, T/C", "setting": "second compound 3.16 µM, first compound 3.16 µM", "result": 43, "unit": "%"},
      {"measurement": "viability, T/C", "setting": "second compound 3.16 µM, first compound 10 µM", "result": 0.38, "unit": "%"},
      {"measurement": "viability, T/C", "setting": "second compound 10 µM, first compound 0.0316 µM", "result": 16.6, "unit": "%"},
      {"measurement": "viability, T/C", "setting": "second compound 10 µM, first compound 0.1 µM", "result": 15.8, "unit": "%"},
      {"measurement": "viability, T/C", "setting": "second compound 10 µM, first compound 0.316 µM", "result": 16.6, "unit": "%"},
      {"measurement": "viability, T/C", "setting": "second compound 10 µM, first compound 1 µM", "result": 12.8, "unit": "%"},
      {"measurement": "viability, T/C", "setting": "second compound 10 µM, first compound 3.16 µM", "result": 13.8, "unit": "%"},
      {"measurement": "viability, T/C", "setting": "second compound 10 µM, first compound 10 µM", "result": 0.48, "unit": "%"}
    ]}
  ]
}
